The source of these data is patent US5140009A (Tap Pharmaceuticals, Inc., priority 1990, dated 1992).

Numbered stars: 1 amine (or outer) side, 2 acyl side, 3 side chain; on linkers, the order of the positions; unused ones are H or OH. Square brackets hold non-standard residues; d marks the D form. Peptide text beside a SMILES is read from it. * marks the point of attachment. Propanoyl(3-(1-naphthyl)) = O=C(CCc1cccc2ccccc12)*; Propanoyl(3-indol-3-yl) = O=C(CCc1c[nH]c2ccccc12)*; Butyryl(4-indol-3-yl) = O=C(CCCc1c[nH]c2ccccc12)*; Propanoyl(3-(4-F-phenyl)) = O=C(CCc1ccc(F)cc1)*; Hydrocinnamoyl(2,4-F2) = O=C(CCc1ccc(F)cc1F)*; X7 = CC1(C)CN(CC(=O)*)C(=O)C(c2ccccc2)=N1; Phe(4-Cl) = N[C@@H](Cc1ccc(Cl)cc1)C(=O)O; Phenylacetyl(4-Cl) = O=C(Cc1ccc(Cl)cc1)*; X10 = O=C([C@@H](Cc1cncs1)N[*:1])[*:2]; 1Nal = N[C@@H](Cc1cccc2ccccc12)C(=O)O; 2Nal = N[C@@H](Cc1ccc2ccccc2c1)C(=O)O; d1Nal = N[C@H](Cc1cccc2ccccc12)C(=O)O; d2Nal = N[C@H](Cc1ccc2ccccc2c1)C(=O)O; Lys(iPr) = CC(C)NCCCC[C@H](N)C(=O)O; NMeY = CN[C@@H](Cc1ccc(O)cc1)C(=O)O; 1Naphthoyl = O=C(c1cccc2ccccc12)*; dCha = N[C@H](CC1CCCCC1)C(=O)O; NMeL = CN[C@@H](CC(C)C)C(=O)O; dNMeL = CN[C@H](CC(C)C)C(=O)O; Nicotinoyl = O=C(c1cccnc1)*; Morpholide = C1CN(*)CCO1; X2 = O=C(C=Cc1ccccc1)*; CO = O=C([*:1])[*:2]; Bn = c1ccc(C*)cc1

In one test the target is T1, LHRH receptors (Rattus norvegicus, UniProt P30969).
T1 construct: Pituitary membranes containing LHRH receptors are prepared in batches from quick-frozen rat pituitaries; tissue Hilltop Labs; host or cells: rat pituitary membranes
T1 sequence (P30969 1-327): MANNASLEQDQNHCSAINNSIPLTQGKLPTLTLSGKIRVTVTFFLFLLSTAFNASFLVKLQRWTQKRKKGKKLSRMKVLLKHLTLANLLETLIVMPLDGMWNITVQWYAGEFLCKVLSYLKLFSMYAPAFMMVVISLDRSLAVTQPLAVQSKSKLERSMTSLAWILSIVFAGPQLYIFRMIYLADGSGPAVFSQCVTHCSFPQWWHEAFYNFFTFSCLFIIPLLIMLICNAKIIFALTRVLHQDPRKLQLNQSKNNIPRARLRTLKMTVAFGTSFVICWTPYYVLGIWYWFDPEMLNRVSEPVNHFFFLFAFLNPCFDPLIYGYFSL
As to the kind of experiment: Receptor Binding (radioligand receptor binding assay). To be noted: table 3; rat pituitary membranes, radioiodinated [D-Leu^6 -des Gly^10 ]-LHRH ethyl amide 50 pM, 2 hours at 4° C.; read-out: Receptor Binding pkI (converted).
For the compound `CCNC(=O)[C@@H]1CCCN1C(=O)[C@H](CCCNC(=N)N)NC(=O)[C@H](CC(C)C)N(C)C(=O)[C@@H](Cc1c[nH]c2ccccc12)NC(=O)[C@H](Cc1ccc(O)cc1)NC(=O)[C@H](CO)NC(=O)CCc1c[nH]c2ccccc12` [Compound 46, N-(3-(3-Indole)propionyl)Ser-Tyr-D-Trp-N-Me-Leu-Arg-Pro-NHEt] ({Propanoyl(3-indol-3-yl)}-SY[dW][NMeL]RP-NHEt), the Ki was 11 nM. Same read-out and setting: under `CCNC(=O)[C@@H]1CCCN1C(=O)[C@H](CCCNC(=N)N)NC(=O)[C@H](CC(C)C)NC(=O)[C@@H](CC(C)C)NC(=O)[C@H](Cc1ccc(O)cc1)NC(=O)[C@H](CO)NC(=O)[C@H](Cc1c[nH]c2ccccc12)NC(=O)C=Cc1ccccc1` [Compound 63, (3-9)[N-Cinnamoyl-Trp^3 -D-Leu^6 -Pro^9 -NHEt]LHRH] (X2-WSY[dL]LRP-NHEt) stands 50.1 nM; under `CCNC(=O)[C@@H]1CCCN1C(=O)[C@H](CCCNC(=N)N)NC(=O)[C@H](CC(C)C)NC(=O)[C@@H](CCCNC(=N)N)NC(=O)[C@H](Cc1ccc(O)cc1)NC(=O)[C@H](COCc1ccccc1)NC(=O)CCc1cccc2ccccc12` [Compound 45, (4-9)[N-(3-(1-Naphthyl)propionyl)-Ser^4 (OBzl)-D-Arg^6 -Pro^9 -NHEt]LHRH] ({Propanoyl(3-(1-naphthyl))}-S(Bn)Y[dR]LRP-NHEt), 6.03 nM; under `CCNC(=O)[C@@H]1CCCN1C(=O)[C@H](CCCNC(=N)N)NC(=O)[C@H](CC(C)C)NC(=O)[C@@H](CC(C)C)N(C)C(=O)[C@H](Cc1ccc(O)cc1)NC(=O)[C@H](CO)NC(=O)CCc1c[nH]c2ccccc12` [Compound 58, N-(3-(3-Indole)propionyl)-Ser-Tyr-D-N-Me-Leu-Leu-Arg-Pro-NHEt] ({Propanoyl(3-indol-3-yl)}-SY[dNMeL]LRP-NHEt), 22.4 nM. Turning to `CCNC(=O)[C@@H]1CCCN1C(=O)[C@H](CCCNC(=N)N)NC(=O)[C@H](CC(C)C)NC(=O)[C@@H](Cc1c[nH]c2ccccc12)NC(=O)[C@H](Cc1ccc(O)cc1)NC(=O)[C@H](CO)NC(=O)[C@@H](Cc1c[nH]c2ccccc12)NC(=O)[C@H](Cc1ccccc1)NC(=O)N1CCOCC1` [Compound 107, (2 9)[N-(N-alpha-Morpholinocarbonyl)-Phe^2 -D-Trp^3,6 -Pro^9 NHEt]LHRH] ({Morpholide-CO}-F[dW]SY[dW]LRP-NHEt), the Ki is 0.257 nM. Still for that read-out and setting: under `CCNC(=O)[C@@H]1CCCN1C(=O)[C@H](CCCNC(=N)N)NC(=O)[C@H](CC(C)C)NC(=O)[C@@H](Cc1c[nH]c2ccccc12)NC(=O)[C@H](Cc1ccc(O)cc1)NC(=O)[C@H](CO)NC(=O)[C@H](Cc1c[nH]c2ccccc12)NC(=O)[C@H](Cc1ccc(Cl)cc1)NC(=O)N1CCOCC1` [Compound 112, (2-9)[N-(N-alpha-Morpholinocarbonyl)-4-Cl -Phe^2 -D-Trp^6 -Pro^9 NHEt]LHRH] ({Morpholide-CO}-[Phe(4-Cl)]WSY[dW]LRP-NHEt) stands 0.316 nM; under `CCNC(=O)[C@@H]1CCCN1C(=O)[C@H](CCCNC(=N)N)NC(=O)[C@H](CC(C)C)NC(=O)[C@@H](CCCNC(=N)N)NC(=O)[C@H](Cc1ccc(O)cc1)NC(=O)[C@H](CO)NC(=O)c1cccc2ccccc12` [Compound 39, (4-9)[N-(1-Naphthoyl)-Ser^4 -D Arg^6 -Pro^9 -NHEt] LHRH] (1Naphthoyl-SY[dR]LRP-NHEt), 117 nM; under `CCNC(=O)[C@@H]1CCCN1C(=O)[C@H](CCCNC(=N)N)NC(=O)[C@H](CC(C)C)NC(=O)[C@@H](Cc1c[nH]c2ccccc12)NC(=O)[C@H](CCCCN)NC(=O)[C@H](CO)NC(=O)[C@H](Cc1c[nH]c2ccccc12)NC(=O)[C@H](Cc1c[nH]cn1)NC(=O)CN1CC(C)(C)N=C(c2ccccc2)C1=O` [Compound 71, N-(5,6-Dihydro-5,5-dimethyl-2-oxo-3-phenyl-1-(2H)-pyrazineacetyl)-His-Trp-Ser-Lys-D-Trp-Leu-Arg-ProNHEt] (X7-HWSK[dW]LRP-NHEt), 3.16 nM.

For the compound `CCNC(=O)[C@@H]1CCCN1C(=O)[C@H](CCCNC(=N)N)NC(=O)[C@H](CC(C)C)NC(=O)[C@@H](Cc1ccc(O)cc1)NC(=O)[C@H](Cc1ccc(O)cc1)NC(=O)[C@H](CO)NC(=O)[C@@H](Cc1ccc(O)cc1)NC(=O)CCc1ccc(F)cc1` [Compound 93, (3-9)[N-(3-(4-Fluorophenyl)propionyl) -D-Tyr^3,6 -Pro^9 NHEt]LHRH] ({Propanoyl(3-(4-F-phenyl))}-[dY]SY[dY]LRP-NHEt), the Ki was 0.0158 nM. For the compound `CCNC(=O)[C@@H]1CCCN1C(=O)[C@H](CCCNC(=N)N)NC(=O)[C@H](CC(C)C)NC(=O)[C@@H](Cc1c[nH]c2ccccc12)NC(=O)[C@H](Cc1ccc(O)cc1)NC(=O)[C@H](CO)NC(=O)[C@H](Cc1ccc2ccccc2c1)NC(=O)N1CCOCC1` [Compound 138, N-(N-alpha-morpholinocarbonyl) -2-Nal-Ser-Tyr-D-Trp-Leu-Arg-ProNHEt] ({Morpholide-CO}-[2Nal]SY[dW]LRP-NHEt), the Ki was 1 nM. As to `CCNC(=O)[C@@H]1CCCN1C(=O)[C@H](CCCNC(=N)N)NC(=O)[C@H](CC(C)C)NC(=O)[C@@H](Cc1c[nH]c2ccccc12)NC(=O)[C@H](Cc1ccc(O)cc1)NC(=O)[C@H](CO)NC(=O)Cc1ccc(Cl)cc1` [Compound 75, (4-9)[N-(3-(4-Chlorophenyl)acetyl) -Ser^4 -D-Trp^6 -Pro^9 NHEt]LHRH] ({Phenylacetyl(4-Cl)}-SY[dW]LRP-NHEt), the Ki is 7.08 nM.

As for `CCNC(=O)[C@@H]1CCCN1C(=O)[C@H](CCCNC(=N)N)NC(=O)[C@H](CC(C)C)NC(=O)[C@@H](Cc1c[nH]c2ccccc12)NC(=O)[C@H](Cc1ccc(O)cc1)NC(=O)[C@H](CO)NC(=O)[C@H](Cc1c[nH]c2ccccc12)NC(=O)[C@@H](Cc1ccc2ccccc2c1)NC(=O)N1CCOCC1` [Compound 111, (2-9)[N-(N-alpha-Morpholinocarbonyl)-D-2-Nal^2 -D-Trp^6 -Pro^9 NHEt]LHRH] ({Morpholide-CO}-[d2Nal]WSY[dW]LRP-NHEt), the Ki was 2.75 nM. Take `CCNC(=O)[C@@H]1CCCN1C(=O)[C@H](CCCNC(=N)N)NC(=O)[C@H](CC(C)C)NC(=O)[C@@H](CC1CCCCC1)NC(=O)[C@H](Cc1ccc(O)cc1)NC(=O)[C@H](CO)NC(=O)CCCc1c[nH]c2ccccc12` [Compound 36, (4-9)[N-(4-(3-Indole)butyryl)-Ser^4 -D-Cha^6 -Pro^9 -NHEt]LHRH] ({Butyryl(4-indol-3-yl)}-SY[dCha]LRP-NHEt): the Ki is 17 nM.

Still in this test, the particulars now being: table 4; rat pituitary membranes, radioligand 50 pM, 2 hours at 4° C.; read-out: Receptor Binding pkI (converted).
For the compound `CCNC(=O)[C@@H]1CCCN1C(=O)[C@H](CCCN=C(N)N)NC(=O)[C@H](CC(C)C)NC(=O)[C@@H](Cc1c[nH]c2ccccc12)NC(=O)[C@H](Cc1ccc(O)cc1)N(C)C(=O)[C@H](CO)NC(=O)[C@@H](Cc1c[nH]c2ccccc12)NC(=O)CCc1ccc(F)cc1F` [Compound 155, (3-9)[N-(3-(2,4-diFluorophenyl)propionyl) -D-Trp^3,6 -NMeTyr^5 -Pro^9 NHEt]LHRH] ({Hydrocinnamoyl(2,4-F2)}-[dW]S[NMeY][dW]LRP-NHEt), the Ki is 0.049 nM.

With `CC(C)C[C@H](NC(=O)[C@@H](CCCCN)NC(=O)[C@H](Cc1ccc(O)cc1)N(C)C(=O)[C@H](CO)NC(=O)[C@@H](Cc1cncs1)NC(=O)CCc1ccc(F)cc1)C(=O)N[C@@H](CCCNC(=N)N)C(=O)N1CCC[C@H]1C(=O)N[C@H](C)C(N)=O` [Compound 183, (3-10)[N-(3-(4-Fluorophenyl)propionyl)-D-Thiaz^3 -NMeTyr^5 -D-Lys^6 -D-Ala^10]LHRH] ({Propanoyl(3-(4-F-phenyl))}-[X10]S[NMeY][dK]LRP[dA]-NH2), the Ki was 0.0263 nM. On the same count and under the same terms, to `COc1ccc(C[C@H](NC(=O)[C@H](CO)NC(=O)[C@@H](Cc2cccc3ccccc23)NC(=O)CCc2ccc(F)cc2)C(=O)N[C@H](CCCCNC(=O)c2cccnc2)C(=O)N[C@@H](CC(C)C)C(=O)N[C@@H](CCCCNC(C)C)C(=O)N2CCC[C@H]2C(=O)N[C@H](C)C(N)=O)cc1` [Compound 200, (3-10)[N-(3-(4-Fluorophenyl)propionyl)-D-1-Nal^3 -Tyr^5 (OMe)-D-Lys^6 (N-epsilon-nicotinyl)-Lys^8 (N-epsilon-isopropyl)-D-Ala^10]LHRH] ({Propanoyl(3-(4-F-phenyl))}-[d1Nal]SY(Me)[dK](Nicotinoyl)L[Lys(iPr)]P[dA]-NH2) belongs 0.00437 nM. As for `CC(C)C[C@H](NC(=O)[C@@H](Cc1ccc(O)cc1)NC(=O)[C@H](Cc1ccc(O)cc1)N(C)C(=O)[C@H](CO)NC(=O)[C@@H](Cc1c[nH]c2ccccc12)NC(=O)CCc1ccc(F)cc1)C(=O)N[C@@H](CCCCNC(C)C)C(=O)N1CCC[C@H]1C(=O)N[C@H](C)C(N)=O` [Compound 196, (3-10)[N-(3-(4-Fluorophenyl)propionyl)-D-Trp^3 -NMeTyr^5 -D-Tyr^6 -Lys^8 (N-epsilon-isopropyl)-D-Ala^10]LHRH] ({Propanoyl(3-(4-F-phenyl))}-[dW]S[NMeY][dY]L[Lys(iPr)]P[dA]-NH2), the Ki was 0.0234 nM. Same read-out and setting: under `CCNC(=O)[C@@H]1CCCN1C(=O)[C@H](CCCNC(=N)N)NC(=O)[C@H](CC(C)C)NC(=O)[C@@H](Cc1c[nH]c2ccccc12)NC(=O)[C@H](Cc1ccc(O)cc1)NC(=O)[C@H](CO)NC(=O)[C@H](Cc1cccc2ccccc12)NC(=O)[C@H](Cc1ccccc1)NC(=O)N1CCOCC1` [Compound 237, (2-9)[N-(alpha-Morpholinocarbonyl)-Phe^2-1-Nal^3 -D-Trp^6 -Pro^9 NHEt]LHRH] ({Morpholide-CO}-F[1Nal]SY[dW]LRP-NHEt) stands 0.0355 nM.
